Assay results published in patent publication US20250034135A1, “ANTI-APOPTOTIC PROTEIN BCL-2 INHIBITOR, PHARMACEUTICAL COMPOSITION AND USES THEREOF” (HANGZHOU HEALZEN THERAPEUTICS CO., LTD., priority 2021, published 2025).

Each compound was assayed against BCL2 (Homo sapiens (Human), UniProt P10415) (assay: Molecular level activity test of anti-apoptotic protein BCL2 (HTRF, binding to Bim peptide)). Settings: HTRF, binding of BCL2 to Bim peptide; read-out: BCL2 nM (inhibitory activity, IC50).
Outline: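 Competition binding format: recombinant His-BCL2 and a biotin-Bim peptide are incubated with compound for 1 h, followed by 4 h at room temperature with HTRF detection antibodies.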

BCL2, sequence (P10415 whole entry): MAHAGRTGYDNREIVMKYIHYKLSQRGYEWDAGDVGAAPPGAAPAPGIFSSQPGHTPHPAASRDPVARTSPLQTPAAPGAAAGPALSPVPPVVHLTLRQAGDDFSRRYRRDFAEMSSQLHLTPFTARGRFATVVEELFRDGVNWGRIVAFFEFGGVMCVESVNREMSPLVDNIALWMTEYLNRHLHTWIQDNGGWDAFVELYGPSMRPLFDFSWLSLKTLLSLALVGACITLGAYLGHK

Q: For CC(C)c1ccccc1[C@@H]1CN(Cc2ccc(NS(C)(=O)=O)cc2)CCN1C1CC2(CCN(c3cc(Oc4cnc5[nH]ccc5c4)c(C(=O)NS(=O)(=O)c4ccc(NCC5(F)CCOCC5)c([N+](=O)[O-])c4)cc3F)CC2)C1 [compound 201, (R)-2-((1H-pyrrolo[2,3-b]pyrid-5-yl)oxy)-5-fluoro-N-((4-(((4-fluorotetrahydro-2H-pyran-4-yl)methyl)amino)-3-nitrophenyl)sulfonyl)-4-(2-(2-(2-isopropylphenyl)-4-(4-(methylsulfonylamino)benzyl)piperazin-1-yl)-7-azaspiro[3.5]non-7-yl)benzamide], which IC50 is on record?
A: < 10 nM

Q: CC(=O)N1CCC(F)(CNc2c([N+](=O)[O-])cc(S(=O)(=O)NC(=O)c3cnc(N4CCC5(CC4)CC(N4CCC[C@H]4c4ccccc4C(C)C)C5)cc3Oc3cnc4[nH]ccc4c3)c3nc[nH]c23)CC1 [compound 027, (S)-4-((1H-pyrrolo[2,3-b]pyrid-5-yl)oxy)-N-((7-(((1-acetyl-4-fluoropiperid-4-yl)methyl)amino)-6-nitro-1H-benzo[d]imidazol-4-yl)sulfonyl)-6-(2-(2-(2-isopropylphenyl)pyrrolidin-1-yl)-7-azaspiro[3.5]non-7-yl) nicotinamide] was tested. Which IC50 did it give?
A: < 10 nM

Q: How did the IC50 turn out when COc1ccc(CN2CCN(C3CC4(CCN(c5cc(Oc6cnc7[nH]ccc7c6)c(C(=O)NS(=O)(=O)c6ccc(NCC7CCOCC7)c([N+](=O)[O-])c6)cc5F)CC4)C3)C(c3ccccc3C(C)C)C2)cc1 (centres unmarked) [compound 064, 2-((1H-pyrrolo[2,3-b]pyrid-5-yl)oxy)-5-fluoro-4-(2-(2-(2-isopropylphenyl)-4-(4-methoxybenzyl)piperazin-1-yl)-7-azaspiro[3.5]non-7-yl)-N-((3-nitro-4-(((tetrahydro-2H-pyran-4-yl)methyl)amino)phenyl)sulfonyl)benzamide] was run?
A: < 10 nM

Q: How did the IC50 turn out when COc1ccc(CN2CCN(C3CC4(CCN(c5cc(Oc6cnc7[nH]ccc7c6)c(C(=O)NS(=O)(=O)c6cc([N+](=O)[O-])c(NCC7(F)CCOCC7)c7scnc67)cn5)CC4)C3)[C@H](c3ccccc3C(C)C)C2)cc1 [compound 134, (R)-4-((1H-pyrrolo[2,3-b]pyridine-5-yl)oxy)-N-((7-(((4-fluorotetrahydro-2H-pyran-4-yl)methyl)amino)-6-nitrobenzo[d]thiazol-4-yl)sulfonyl)-6-(2-(2-(2-isopropylphenyl)-4-(4-methoxybenzyl)piperazin-1-yl)-7-azaspiro[3.5]non-7-yl) nicotinamide] was run?
A: < 10 nM

Q: For COc1ccc(CN2CCN(C3CC4(CCN(c5cc(Oc6cnc7[nH]ccc7c6)c(C(=O)NS(=O)(=O)c6cc([N+](=O)[O-])c(NCC7(F)CCOCC7)c7c6OCC7)cc5F)CC4)C3)[C@H](c3ccccc3C(C)C)C2)cc1 [compound 142, (R)-2-((1H-pyrrolo[2,3-b]pyrid-5-yl)oxy)-5-fluoro-N-((4-(((4-fluorotetrahydro-2H-pyran-4-yl)methyl)amino)-5-nitro-2,3-dihydrobenzofuran-7-yl)sulfonyl)-4-(2-(2-(2-isopropylphenyl)-4-(4-methoxybenzyl)piperazin-1-yl)-7-azaspiro[3.5]non-7-yl)benzamide], which IC50 is on record?
A: < 10 nM

Q: With COc1ccc(CN2CCN(C3CC4(CCN(c5ccc(C(=O)NS(=O)(=O)c6cc([N+](=O)[O-])c(NCC7(F)CCOCC7)c7[nH]cnc67)c(N6CCCOc7nc8[nH]ccc8cc76)c5)CC4)C3)C(c3ccccc3C(C)C)C2)cc1 (centres unmarked) [compound 094, 2-(3,4-dihydro-2H-pyrrolo[3′,2′:5,6]pyridino[2,3-b][1,4]oxazacycloheptane-1 (7H)-yl)-N-((7-(((4-fluorotetrahydro-2H-pyran-4-yl)methyl)amino)-6-nitro-1H-benzo[d]imidazol-4-yl)sulfonyl)-4-(2-(2-(2-isopropylphenyl)-4-(4-methoxybenzyl)piperazin-1-yl)-7-azaspiro[3.5]non-7-yl)benzamide] as the compound, how does the IC50 read?
A: < 10 nM

Q: Which IC50 does the source give for CC(C)c1ccccc1[C@@H]1CCCN1C1CC2(CCN(c3cc(Oc4cnc5[nH]ccc5c4)c(C(=O)NS(=O)(=O)c4cc([N+](=O)[O-])c(NCC5CCOCC5)c5c4OCO5)cc3F)CC2)C1 [compound 156, (S)-2-((1H-pyrrolo[2,3-b]pyrid-5-yl)oxy)-5-fluoro-4-(2-(2-(2-isopropylphenyl)pyrrolidin-1-yl)-7-azaspiro[3.5]non-7-yl)-N-((6-nitro-7-(((tetrahydro-2H-pyran-4-yl)methyl)amino)benzo[d][1,3]dioxocyclopent-4-yl)sulfonyl)benzamide] here?
A: < 10 nM

Q: Which IC50 does the source give for COc1ccc(CN2CCN(C3CC4(CCN(c5cc(Oc6cnc7[nH]ccc7c6)c(C(=O)NS(=O)(=O)c6cc([N+](=O)[O-])c(NC[C@H]7CC[C@](C)(O)CC7)c7c6OCCO7)cc5F)CC4)C3)[C@H](c3ccccc3C(C)C)C2)cc1 [compound 118, 2-((1H-pyrrolo[2,3-b]pyrid-5-yl)oxy)-5-fluoro-N-((8-((((1r, 4r)-4-hydroxy-4-methylcyclohexyl)methyl)amino)-7-nitro-2,3-dihydrobenzo[b][1,4]dioxan-5-yl)sulfonyl)-4-(2-((R)-2-(2-isopropylphenyl)-4-(4-methoxybenzyl)piperazin-1-yl)-7-azaspiro[3.5]non-7-yl)benzamide] here?
A: < 10 nM

Q: For COc1ccc(CN2CCN(C3CC4(CCN(c5cc(Oc6cnc7[nH]ccc7c6)c(C(=O)NS(=O)(=O)c6cc([N+](=O)[O-])c(NCC7(F)CCOCC7)c7scnc67)cc5F)CC4)C3)[C@H](c3ccccc3C(C)C)C2)cc1 [compound 108], which IC50 is on record?
A: < 10 nM

Q: Which IC50 does the source give for CC(C)c1ccccc1[C@@H]1CCCN1C1CC2(CCN(c3cc(Oc4cnc5[nH]ccc5c4)c(C(=O)NS(=O)(=O)c4cc([N+](=O)[O-])c(NC[C@H]5CC[C@](C)(O)CC5)c5occc45)cc3F)CC2)C1 [compound 095, 2-((1H-pyrrolo[2,3-b]pyrid-5-yl)oxy)-5-fluoro-N-((7-((((1r, 4r)-4-hydroxy-4-methylcyclohexyl)methyl)amino)-6-nitrobenzofuran-4-yl)sulfonyl)-4-(2-((S)-2-(2-isopropylphenyl)pyrrolidin-1-yl)-7-azaspiro[3.5]non-7-yl)benzamide] here?
A: < 10 nM

Q: Which IC50 does the source give for CC(C)c1ccccc1[C@@H]1CCCN1C1CC2(CCN(c3cc(Oc4cnc5[nH]ccc5c4)c(C(=O)NS(=O)(=O)c4cc([N+](=O)[O-])c(NC[C@H]5C[C@@](C)(O)C5)c5[nH]cnc45)cc3F)CC2)C1 [compound 018, 2-((1H-pyrrolo[2,3-b]pyrid-5-yl)oxy)-5-fluoro-N-((7-((((1S,3S)-3-hydroxy-3-methylcyclobutyl)methyl)amino)-6-nitro-1H-benzo[d]imidazol-4-yl)sulfonyl)-4-(2-((S)-2-(2-isopropylphenyl)pyrrolidin-1-yl)-7-azaspiro[3.5]non-7-yl)benzamide] here?
A: < 10 nM

Q: For CC(C)c1ccccc1[C@@H]1CCCN1C1CC2(CCN(c3cc(Oc4cnc5[nH]ccc5c4)c(C(=O)NS(=O)(=O)c4cc([N+](=O)[O-])c(NCC5(F)CCN(C6CCOCC6)CC5)c5[nH]cnc45)cn3)CC2)C1 [compound 023], which IC50 is on record?
A: < 10 nM

Q: For CC(C)c1ccccc1[C@@H]1CN(Cc2ccncc2)CCN1C1CC2(CCN(c3cc(Oc4cnc5[nH]ccc5c4)c(C(=O)NS(=O)(=O)c4ccc(NC[C@H]5CC[C@](C)(O)CC5)c([N+](=O)[O-])c4)cc3F)CC2)C1 [compound 231, 2-((1H-pyrrolo[2,3-b]pyrid-5-yl)oxy)-5-fluoro-N-((4-((((1r, 4r)-4-hydroxy-4-methylcyclohexyl)methyl)amino)-3-nitrophenyl)sulfonyl)-4-(2-((R)-2-(2-isopropylphenyl)-4-(pyrid-4-ylmethyl)piperazin-1-yl)-7-azaspiro[3.5]non-7-yl)benzamide], which IC50 is on record?
A: < 10 nM

Q: For COc1ccc(CN2CCN(C3CC4(CCN(c5cc(Oc6cnc7[nH]ccc7c6)c(C(=O)NS(=O)(=O)c6cc([N+](=O)[O-])c(NCC7(F)CCOCC7)c7[nH]cnc67)cc5F)CC4)C3)C(c3ccccc3C(C)C)C2)cc1 (centres unmarked) [compound 078, 2-((1H-pyrrolo[2,3-b]pyrid-5-yl)oxy)-5-fluoro-N-((7-(((4-fluorotetrahydro-2H-pyran-4-yl)methyl)amino)-6-nitro-1H-benzo[d]imidazol-4-yl)sulfonyl)-4-(2-(2-(2-isopropylphenyl)-4-(4-methoxybenzyl)piperazin-1-yl)-7-azaspiro[3.5]non-7-yl)benzamide], which IC50 is on record?
A: < 10 nM

Q: With CC(C)c1ccccc1[C@@H]1CCCN1C1CC2(CCN(c3cc(Oc4cnc5[nH]ccc5c4)c(C(=O)NS(=O)(=O)c4cc([N+](=O)[O-])c(NCC5CCC(N(C)C)CC5)c5[nH]cnc45)cc3F)CC2)C1 (stereo partly drawn) [compound 034, 2-((1H-pyrrolo[2,3-b]pyrid-5-yl)oxy)-N-((7-((((1S,4S)-4-(dimethylamino)cyclohexyl)methyl)amino)-6-nitro-1H-benzo[d]imidazol-4-yl)sulfonyl)-5-fluoro-4-(2-((S)-2-(2-isopropylphenyl)pyrrolidin-1-yl)-7-azaspiro[3.5]non-7-yl)benzamide] as the compound, how does the IC50 read?
A: < 10 nM

Q: How did the IC50 turn out when CC(C)c1ccccc1[C@@H]1CN(Cc2ccc(C3CC3)cc2)CCN1C1CC2(CCN(c3ccc(C(=O)NS(=O)(=O)c4cc([N+](=O)[O-])c(NCC5(F)CCOCC5)c5c4OCO5)c(Oc4cnc5[nH]ccc5c4)c3)CC2)C1 [compound 172, (R)-2-((1H-pyrrolo[2,3-b]pyrid-5-yl)oxy)-4-(2-(4-(4-cyclopropylbenzyl)-2-(2-isopropylphenyl)piperazin-1-yl)-7-azaspiro[3.5]non-7-yl)-N-((7-(((4-fluorotetrahydro-2H-pyran-4-yl)methyl)amino)-6-nitrobenzo[d][1,3]dioxocyclopent-4-yl)sulfonyl)benzamide] was run?
A: < 10 nM

Q: How did the IC50 turn out when CC(C)c1ccccc1[C@@H]1CCCN1C1CC2(CCN(c3cc(Oc4cnc5[nH]ccc5c4)c(C(=O)NS(=O)(=O)c4cc([N+](=O)[O-])c(NCC5CCC(N(C)C)CC5)c5[nH]cnc45)cn3)CC2)C1 (stereo partly drawn) [compound 033, 4-((1H-pyrrolo[2,3-b]pyrid-5-yl)oxy)-N-((7-((((1S,4S)-4-(dimethylamino)cyclohexyl)methyl)amino)-6-nitro-1H-benzo[d]imidazol-4-yl)sulfonyl)-6-(2-((S)-2-(2-isopropylphenyl)pyrrolidin-1-yl)-7-azaspiro[3.5]non-7-yl) nicotinamide] was run?
A: < 10 nM
